Experimental data reported in paper PMC9321663, “The DevTox Germ Layer Reporter Platform: An Assay Adaptation of the Human Pluripotent Stem Cell Test” (Toxics, 2022).
Read-outs that look alike come from different tables or passages of the source.

How the values were obtained:
RUES2-GLR cells = experiment: DevTox GLR-Endo assay: decrease in total cell count, cytotoxicity (AEID 3098, CellCount_dn); details: for Emax: Homo sapiens, read-out: Cell Count % Max Inhibition
Description: (§1) The total test chemical incubation period was 48 h.
(§2) Assay plate controls included non-differentiated pluripotent cells maintained in complete Essential 8 Flex medium (baseline control), endoderm differentiated cells (differentiation control), endoderm differentiated cells treated with DMSO (0.2%) (solvent control), and TGF-ß receptor inhibitor SB431542 (1 µM)-treated cells (developmental toxicant-positive control) (Figure S3). All experiments were completed with a minimum of four biological replicates (n = 4).
(§3) (Supplementary Materials).

in vitro = details: human
Description: as §1, §2, §3

[1] = cited from earlier work; for Development Toxicant Classification: Table S2; for Classification: developmental toxicant classification (Teratogen / Non-Teratogen) of reference and training chemicals, ref DOI per chemical: 10.1093/toxsci/kft239, 10.1093/toxsci/kfaa014, 10.1177/026119290203000204, 10.1038/s41598-020-59542-x; for DT Class.: developmental toxicant classification
[2] = test system: SOX17 (endoderm marker) in RUES2-GLR cells; experiment: DevTox GLR-Endo assay: decrease in percent SOX17-positive cells (AEID 3094, Sox17_dn); details: for AC50 / Emax: Homo sapiens; for Hit Call: Table S2, SOX17-positive cells, cutoff 3*bmad; for HIT−CALL: tcpl plot AEID3094, COFF 20.3
Description: as §1, §2, §3

[3] = test system: SOX17 (endoderm marker) in RUES2-GLR cells; experiment: DevTox GLR-Endo assay: increase in percent SOX17-positive cells (AEID 3093, Sox17_up); assay type: cell-based, human; design: tp (winning model): unit not given here; details: for Emax: Homo sapiens; for HIT−CALL: tcpl plot AEID3093, COFF 20.3
Description: as §1, §3

H9 human ESC line = details: cited from earlier work
[4] = test system: SOX2 (ectoderm and pluripotency marker) in RUES2-GLR cells; experiment: DevTox GLR-Endo assay: increase in percent SOX2-positive cells (AEID 3095, Sox2_up); details: for AC50 / Emax: Homo sapiens; for AC50: read-out: ga (winning model); for Emax: read-out: tp (winning model); for MAX_MEAN: tcpl plot AEID3095, maximum mean response; for MAX_MED: tcpl plot AEID3095, maximum median response;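 as to all read-outs here: cells exposed to test chemicals for 48 h in total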
[5] = test system: SOX17 in H9 human ESC line; details: SOX17 half-maximal inhibition concentration; read-out: hPST IC50; cited from earlier work
[6] = 48 h, read-out: DevTox-GLR Endo AC50 (µM), SOX17 half-maximal activity concentration, 48 h exposure
[7] = read-out: DevTox % Max Inhibition
[8] = read-out: ga (winning model), tcpl plot AEID3094, gain parameter of winning curve fit (log concentration, µM axis), hit calls only (converted)
[9] = tcpl plot AEID3093, maximum mean response, read-out: MAX_MEAN
[10] = tcpl plot AEID3093, maximum median response, read-out: MAX_MED
[11] = cytotoxicity half-maximal concentration
[12] = Table S2, percent SOX17-positive cells, 48 h exposure

Structure (SMILES)	Cell Count ACC (RUES2-GLR cells; human, 48 h) [µM]	Emax (RUES2-GLR cells) [%]	CC50 at 48 h (in vitro) [nM]	Development Toxicant Classification [1]	DT Class. ([1]; chemicals common with hPST)	AC50 [2, 6] [µM]	Emax [2, 7] [%]	Emax ([2]; read-out: MAX_MEAN) [%]	Emax ([2]; read-out: MAX_MED) [%]	AC50 [2, 8] [µM]	Emax ([2]; read-out: tp (winning model)) [%]	Hit Call [2]	HIT−CALL [2]	Emax [3, 9] [%]	Emax [3, 10] [%]	HIT−CALL [3]	hPST TC50 (H9 human ESC line; [11]) [µM]	hPST TC50 (H9 human ESC line; hPST cytotoxicity) [µM]	MAX_MEAN [4] [Percent Activity]	MAX_MED [4] [Percent Activity]	also measured
COc1cccc2c1C(=O)c1c(O)c3c(c(O)c1C2=O)C[C@@](O)(C(=O)CO)C[C@@H]3O[C@H]1C[C@H](N)[C@H](O)[C@H](C)O1 [Doxorubicin]	0.001329	93.9	3.3	Positive	Pos	0.0019				0.00186		Positive	1	50.4	51.7	1	<0.3	< 0.3	9.13	8.86	DevTox ACC [2, 12]: 0.001242 µM; tp (winning model) ([3]; tcpl plot AEID3093, top of winning curve fit, hit calls only): 48.7; AC50 [4]: 640 nM; Emax [4]: 19.8%
CN1CCN2c3ccccc3Cc3ccccc3C2C1 (stereo not drawn) [Mianserin]	18.6008	97.7	33600	Positive	Pos	34.9	101	101	101	34.7	122	Positive	1	2.7	3.98	0	60	60	4.94	5.45	Classification [1]: Teratogen; DevTox ACC ([2]; 48 h): 13.5618 µM; AC50 [4]: 85100 nM; Emax [4]: 13.7%

Second part, led by results:

Cell Count ACC (RUES2-GLR cells; human, 48 h) [µM]	Structure (SMILES)	Emax (RUES2-GLR cells) [%]	CC50 at 48 h (in vitro) [nM]	Development Toxicant Classification [1]	DT Class. ([1]; chemicals common with hPST)	AC50 [2, 6] [µM]	Emax [2, 7] [%]	Emax ([2]; read-out: MAX_MEAN) [%]	Emax ([2]; read-out: MAX_MED) [%]	AC50 [2, 8] [µM]	Emax ([2]; read-out: tp (winning model)) [%]	Hit Call [2]	HIT−CALL [2]	Emax [3, 9] [%]	Emax [3, 10] [%]	HIT−CALL [3]	hPST TC50 (H9 human ESC line; [11]) [µM]	hPST TC50 (H9 human ESC line; hPST cytotoxicity) [µM]	MAX_MEAN [4] [Percent Activity]	MAX_MED [4] [Percent Activity]	also measured
0.5959	CC/C(=C(/CC)c1ccc(O)cc1)c1ccc(O)cc1 [Diethylstilbestrol]	95.7	710	Positive	Pos	0.64	101	101	101	0.644	101	Positive	1	6.93	6.73	0	4.4	4.4	6.09	4.84	DevTox-GLR Endo CC (RUES2-GLR cells; human, 48 h): 0.60 µM; Classification [1]: Teratogen; DT Class. ([1]; chemicals common with quickPredict): Pos; DevTox-GLR Endo ACC ([2]; activity concentration at cutoff, SOX17-positive cells, 48 h exposure): 0.54 µM; AC50 [4]: 2130 nM; Emax [4]: 3.84%
>200	Nc1nc2ncc(CNc3ccc(C(=O)N[C@@H](CCC(=O)O)C(=O)O)cc3)nc2c(=O)[nH]1 [Folic Acid]	13.7	> 200000			> 200	16.4	13.8	16.4			Negative	0	8.84	8.92	0	84	84	0.885	0.515	IC50 [5]: 39 µM; DevTox ACC [2, 12]: >200 µM
122.424	CC(C)Cc1ccc(C(C)C(=O)O)cc1 (stereo not drawn) [Ibuprofen]	22.2					23.9	24.3	23.9		42.6	Positive	1	11.6	11.9	0			0.944	0.561	IC50 [5]: > 200 µM
